{"source": "patent US20260138958A1", "about": "“SUBSTITUTED N-PHENYLURACILS AND SALTS THEREOF, AND USE THEREOF AS HERBICIDAL ACTIVE SUBSTANCES” (Bayer Aktiengesellschaft, priority 2022, published 2026)", "assay_type_in_all_cases": "in vivo", "key": {"[1]": {"tested_on": "Amaranthus retroflexus (AMARE)", "assay": "Post-emergence herbicidal action, greenhouse pot test", "in_short": "(§1)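 Post-em greenhouse pots, sandy loam; one-leaf stage (2–3 wk after sowing); WP/EC spray, aq. suspension/emulsion + 0.5% additive, 600 l/ha; optimum conditions ~3 wk; visual % activity vs untreated (100% = dead).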"}, "[2]": {"tested_on": "Echinochloa crus-galli (ECHCG)", "assay": "Post-emergence herbicidal action, greenhouse pot test", "in_short": "as §1"}, "Viola tricolor (VIOTR)": {"tested_on": "Viola tricolor (VIOTR)", "assay": "Post-emergence herbicidal action, greenhouse pot test", "in_short": "as §1"}, "[3]": {"tested_on": "Tripleurospermum inodorum (MATIN)", "assay": "Post-emergence herbicidal action, greenhouse pot test", "in_short": "as §1"}, "[4]": {"tested_on": "Abutilon theophrasti (ABUTH)", "assay": "Post-emergence herbicidal action, greenhouse pot test", "in_short": "as §1"}, "[5]": {"tested_on": "Pharbitis purpurea (PHBPU)", "assay": "Post-emergence herbicidal action, greenhouse pot test", "in_short": "as §1"}, "Lolium rigidum (LOLRI)": {"tested_on": "Lolium rigidum (LOLRI)", "assay": "Post-emergence herbicidal action, greenhouse pot test", "in_short": "as §1"}, "[6]": {"tested_on": "Polygonum convolvulus (POLCO)", "assay": "Post-emergence herbicidal action, greenhouse pot test", "in_short": "as §1"}, "[7]": {"tested_on": "Alopecurus myosuroides (ALOMY)", "assay": "Post-emergence herbicidal action, greenhouse pot test", "in_short": "as §1"}, "Veronica persica (VERPE)": {"tested_on": "Veronica persica (VERPE)", "assay": "Post-emergence herbicidal action, greenhouse pot test", "in_short": "as §1"}, "Setaria viridis (SETVI)": {"tested_on": "Setaria viridis (SETVI)", "assay": "Post-emergence herbicidal action, greenhouse pot test", "in_short": "as §1"}, "Oryza sativa (ORYSA)": {"tested_on": "Oryza sativa (ORYSA)", "assay": "Post-emergence crop plant compatibility, greenhouse pot test", "conditions": "crop plant, post-emergence", "in_short": "(§2)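 Visual % damage scores were taken roughly 3 weeks after treatment, relative to untreated plants, where 100% means plants died and 0% means no difference. Plants received aqueous sprays (WP or EC, 0.5% additive, 600 l/ha) on green parts at the one-leaf stage, 2–3 weeks after sowing.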"}, "Zea mays (ZEAMX)": {"tested_on": "Zea mays (ZEAMX)", "assay": "Post-emergence crop plant compatibility, greenhouse pot test", "conditions": "crop plant, post-emergence, 1.25 g/ha", "in_short": "as §2"}, "[8]": {"tested_on": "Triticum aestivum (TRZAS)", "assay": "Post-emergence crop plant compatibility, greenhouse pot test", "conditions": "crop plant, post-emergence, 1.25 g/ha", "in_short": "as §2"}}, "data": [{"smiles": "Cn1c(C(F)(F)F)cc(=O)n(-c2cc(Oc3ccccc3OCC(=O)OCC3CC3)c(Cl)cc2F)c1=O", "note": "[I.7-1]", "values": [{"measurement": "Post-emergence effect at 1.25 g/ha against AMARE in %", "setting": "[1]; 1.25 g/ha", "value": 100, "unit": "%"}, {"measurement": "Post-emergence effect at 5 g/ha against AMARE in %", "setting": "[1]; 5 g/ha", "value": 100, "unit": "%"}, {"measurement": "Post-emergence effect at 20 g/ha against AMARE in %", "setting": "[1]; 20 g/ha", "value": 100, "unit": "%"}, {"measurement": "Post-emergence effect at 1.25 g/ha against ECHCG in %", "setting": "[2]; 1.25 g/ha", "value": 100, "unit": "%"}, {"measurement": "Post-emergence effect at 5 g/ha against ECHCG in %", "setting": "[2]; 5 g/ha", "value": 100, "unit": "%"}, {"measurement": "Post-emergence effect at 20 g/ha against ECHCG in %", "setting": "[2]; 20 g/ha", "value": 100, "unit": "%"}, {"measurement": "Post-emergence effect at 1.25 g/ha against VIOTR in %", "setting": "Viola tricolor (VIOTR); 1.25 g/ha", "value": 100, "unit": "%"}, {"measurement": "Post-emergence effect at 5 g/ha against VIOTR in %", "setting": "Viola tricolor (VIOTR); 5 g/ha", "value": 100, "unit": "%"}, {"measurement": "Post-emergence effect at 20 g/ha against VIOTR in %", "setting": "Viola tricolor (VIOTR); 20 g/ha", "value": 100, "unit": "%"}, {"measurement": "Post-emergence effect at 1.25 g/ha against MATIN in %", "setting": "[3]; 1.25 g/ha", "value": 80, "unit": "%"}, {"measurement": "Post-emergence effect at 5 g/ha against MATIN in %", "setting": "[3]; 5 g/ha", "value": 100, "unit": "%"}, {"measurement": "Post-emergence effect at 20 g/ha against MATIN in %", "setting": "[3]; 20 g/ha", "value": 100, "unit": "%"}, {"measurement": "Post-emergence effect at 1.25 g/ha against ABUTH in %", "setting": "[4]; 1.25 g/ha", "value": 90, "unit": "%"}, {"measurement": "Post-emergence effect at 5 g/ha against ABUTH in %", "setting": "[4]; 5 g/ha", "value": 100, "unit": "%"}, {"measurement": "Post-emergence effect at 20 g/ha against ABUTH in %", "setting": "[4]; 20 g/ha", "value": 100, "unit": "%"}, {"measurement": "Post-emergence effect at 1.25 g/ha against PHBPU in %", "setting": "[5]; 1.25 g/ha", "value": 80, "unit": "%"}, {"measurement": "Post-emergence effect at 5 g/ha against PHBPU in %", "setting": "[5]; 5 g/ha", "value": 100, "unit": "%"}, {"measurement": "Post-emergence effect at 20 g/ha against PHBPU in %", "setting": "[5]; 20 g/ha", "value": 100, "unit": "%"}, {"measurement": "Post-emergence effect at 20 g/ha against LOLRI in %", "setting": "Lolium rigidum (LOLRI)", "value": 80, "unit": "%"}, {"measurement": "Post-emergence effect at 1.25 g/ha against POLCO in %", "setting": "[6]; 1.25 g/ha", "value": 80, "unit": "%"}, {"measurement": "Post-emergence effect at 5 g/ha against POLCO in %", "setting": "[6]; 5 g/ha", "value": 100, "unit": "%"}, {"measurement": "Post-emergence effect at 20 g/ha against POLCO in %", "setting": "[6]; 20 g/ha", "value": 100, "unit": "%"}, {"measurement": "Post-emergence effect at 5 g/ha against ALOMY in %", "setting": "[7]; 5 g/ha", "value": 90, "unit": "%"}, {"measurement": "Post-emergence effect at 20 g/ha against ALOMY in %", "setting": "[7]; 20 g/ha", "value": 100, "unit": "%"}, {"measurement": "Post-emergence effect at 1.25 g/ha against VERPE in %", "setting": "Veronica persica (VERPE); 1.25 g/ha", "value": 100, "unit": "%"}, {"measurement": "Post-emergence effect at 5 g/ha against VERPE in %", "setting": "Veronica persica (VERPE); 5 g/ha", "value": 100, "unit": "%"}, {"measurement": "Post-emergence effect at 20 g/ha against VERPE in %", "setting": "Veronica persica (VERPE); 20 g/ha", "value": 100, "unit": "%"}, {"measurement": "Post-emergence effect at 1.25 g/ha against SETVI in %", "setting": "Setaria viridis (SETVI); 1.25 g/ha", "value": 100, "unit": "%"}, {"measurement": "Post-emergence effect at 5 g/ha against SETVI in %", "setting": "Setaria viridis (SETVI); 5 g/ha", "value": 100, "unit": "%"}, {"measurement": "Post-emergence effect at 20 g/ha against SETVI in %", "setting": "Setaria viridis (SETVI); 20 g/ha", "value": 100, "unit": "%"}, {"measurement": "Post-emergence effect at 1.25 g/ha against ORYSA in %", "setting": "Oryza sativa (ORYSA); 1.25 g/ha", "value": 0, "unit": "%"}, {"measurement": "Post-emergence effect at 5 g/ha against ORYSA in %", "setting": "Oryza sativa (ORYSA); 5 g/ha", "value": 20, "unit": "%"}, {"measurement": "Post-emergence effect at 1.25 g/ha against ZEAMX in %", "setting": "Zea mays (ZEAMX)", "value": 20, "unit": "%"}, {"measurement": "Post-emergence effect at 1.25 g/ha against TRZAS in %", "setting": "[8]", "value": 0, "unit": "%"}]}]}
